Source: patent US9910031B2, “Compositions and methods for modulating c-Rel-dependent cytokine production” (Synta Pharmaceuticals Corporation, priority 2003, dated 2018)

Experiments:
[1] = test system: NFκB; assay: Gel-shift assay of NFκB binding to the IL-12 p40 promoter site, THP-1 nuclear extracts; assay type: cell-based, human; details: IFN-γ-primed, SAC-stimulated THP-1; 1 μM Compound 1 or 10 mM ASA
Method: Nuclear extracts were prepared from IFN-γ-primed THP-1 cells that had been treated with or without SAC and incubated in the presence or absence of 1 μM Compound 1 or 10 mM ASA. Isolation of nuclear extracts was accomplished by first suspending THP-1 cells in 20 volumes of buffer A containing 10 mM KCl, 10 mM HEPES (pH 7.9), 1 mM MgCl2, 1 mM dithiothreitol (DTT), 0.1% Nonidet p40 (NP-40), and 0.5 mM phenylmethylsulfonyl fluoride (PMSF) and then homogenizing and centrifuging at 10,000 rpm at 4° C. for 5 min. Nuclear pellets were then suspended in buffer C containing 400 mM NaCl, 20 mM HEPES pH 7.9), 15 mM MgCl2, 0.2 mM EDTA, 1 mM DTT, 25% glycerol, 1 mM PMSF, and 10 μg of leupeptin, 20 μg of pepstatin, and 10 μg of antipain per ml, incubated for 30 min at 4° C., and centrifuge at 14,000 rpm for […]. The supernatants were dialyzed against buffer D containing 100 mM NaCl, 20 mM HEPES (pH 7.9), 20% glycerol, 1 mM PMSF, and 1 mM DTT.
The extracts obtained from this process were used in gel-shift assays using oligonucleotides containing the NFκB target sequence corresponding to the region −121 to −102 from the transcription initiation site of IL-12 p40 or a mutated NFκB binding site. […] This interaction was specific as it was competed away by an excess of unlabeled probe, but not by a mutated oligonucleotide in which two base-pairs were substituted. […]

[2] = test system: p50; assay: Western blot of nuclear p50 in THP-1 cells; assay type: cell-based, human
From the text: In order to understand this changes, the subcellular localization of NF-κB proteins was investigated using western blot analysis.
Of the transcription factors that have been analyzed, two factors, ICSBP and c-Rel, seem to be affected by Compound 1/Compound 2 treatment. ICSBP binds indirectly to the Ets-2 site. The primary NFκB trans-activator for IL-12 is the c-Rel/p50 heterodimer. Other dimers (p65/p50 and p50/p50) either lack activity or have inhibitory functions. Thus, c-Rel plays a role in IL-12 transcription as a result of both activation through NFκB and its interaction with ICSBP. […] The membranes were blocked with 5% milk in TBST buffer and then incubated with anti-c-Rel, anti-p65, anti-p50, anti-ICSBP or anti-PU-1 antibody (all the antibodies were purchased from Santa Cruz) at a dilution of 1:500 for 1 h at room temperature or overnight at 4° C. The membranes were washed and incubated with Horseradish Peroxidase-conjugated anti-rabbit IgG or anti-mouse IgG (Amersham, England) at a dilution of 1:2000 at room temperature for 1 h.
Compound 2 impairs nuclear translocation of c-Rel and p50. We examined the nuclear translocation kinetics of NF-kB family members in LPS stimulated cells treated with Compound 2. THP1 cells were stimulated with LPS in either the presence or absence of 100 nM Compound 2, and the distribution of the NF-κB Rel family members are determined by immunoblotting nuclear (n.p.) extracts collected at 5 min, 15 min, 30 min, 1 h, 3 h and 6 h post-treatment. In response to LPS stimulation, p50 translocated into the nucleus as early as 5 minutes post-stimulation and accumulates as time goes on (FIG. 7, immunoblots and FIG. 8 densitometry). […] The experiment examining p65 nuclear translocation is shown in FIG. 9 (immunoblots) and FIG. 10 (densitometry). In LPS stimulated cells, p65 translocated into the nucleus as early as 5 minutes post-stimulation and accumulated to maximum levels at 15-30 minutes post-stimulation. Treatment of LPS-stimulated cells with Compound 2 had no effect on the kinetics of p65 nuclear entry.
THP-1 cells were suspended in 20 volumes of buffer A containing 10 mM KCl, 10 mM HEPES (pH 7.9), 1 mM MgCl2, 1 mM dithiothreitol (DTT), 0.1% Nonidet p40 (NP-40), and 0.5 mM phenylmethylsulfonyl fluoride (PMSF) and homogenized and centrifuged at 10,000 rpm at 4 C for 5 min. Nuclear pellets were then suspended in buffer C containing 400 mM NaCl, 20 mM HEPES 9 pH 7.9), 15 mM MgCl2, 0.2 mM EDTA, 1 mM DTT, 25% glycerol, 1 mM PMSF, and 10 ug of leupeptin, 20 ug of pepstatin, and 10 ug/ml antipain, incubated for 30 min at 4 C, and centrifuged at 14,000 rpm for 20 min. The supernatants were dialyzed against buffer D containing 100 mM NaCl, 20 mM HEPES (pH 7.9), 20% glycerol, 1 mM PMSF, and 1 mM DTT. […]

[3] = test system: IL-12 p40; assay: IL-12 p40 inhibition after Toxoplasma antigen (STAg) versus IFN-γ/SAC stimulus; assay type: cell-based; details: preliminary results
Method: Compound 2 did, in fact, inhibit p70 but not p40 production in human DCs (no inhibition at up to 10 μM Compound 2). […] Therefore, if Compound 2 is acting through c-Rel, we should not observe potent inhibition of IL-12 p40 following STAg stimulation. […] These two results further confirm that the inhibition of IL-12 production by Compound 2 is via the c-Rel pathway.

NFκB binding to p40 promoter probe (gel shift) [1] | SMILES | amount of p50 protein in nuclear ([2]; 500 nM, 3 hr, relative to untreated cells) | nuclear p50 levels (FIG. 4) ([2]; THP1, IFN-γ plus LPS or IFN-γ plus SAC) | kinetics of p50 nuclear entry ([2]; THP1, LPS, 100 nM, 5 minutes to 1 hr post-stimulation) | nuclear p50 protein levels ([2]; THP1, LPS, 100 nM, 3 hours) | IC50 of p40 inhibition with STAg induction relative to IFN-γ/SAC stimulus [3]
did not show any influence | C(=NNc1nc(OCCc2ccccn2)nc(N2CCOCC2)n1)c1c[nH]c2ccccc12 [Compound 1, N-(1H-indol-3-ylmethylene)-N′-[4-morpholin-4-yl-6-(2-pyridin-2-yl-ethoxy)-[1,3,5]triazin-2-yl]-hydrazine] | – | – | – | – | –
– | Cc1cccc(C=NNc2cc(N3CCOCC3)nc(OCCc3ccccn3)n2)c1 [Compound 2, N-(3-methyl-benzylidene)-N′-[6-morpholin-4-yl-2-(2-pyridin-2-yl-ethoxy)-pyrimidin-4-yl]-hydrazine] | decreased | decreased slightly | no effect | small decrease | approximately 1000 times
